This is an account of results in patent US20150258072A1, “Antibacterial compositions” (WOCKHARDT LIMITED, priority 2012, published 2015).

Holding throughout (type): cell-based
The test system of assay [1] is K. pneumoniae ATCC 700603 strain producing SHV 18 ESBL. As to the kind of experiment: Cidal activity (bacterial count over time). The following applies: for Bacterial count: concentrations in label.
The test system of assay [2] is K. pneumoniae B 43 strain producing SHV and TEM ESBLs. As to the kind of experiment: Cidal activity (bacterial count over time). Particulars: concentrations in label.
In assay [3] the test system is K. pneumoniae ATCC 700603 strain producing SHV 18 ESBL. As to the kind of experiment: MIC by agar dilution (CLSI). Particulars: Klebsiella pneumoniae. As for the experimental part:
The efficacy of compositions and methods in treating or controlling bacterial infections was studied. In a typical study, overnight grown bacterial cultures were diluted appropriately and inoculated on the agar media containing doubling dilutions of the antibiotic. Observation for growth or no growth was performed after 16-20 hours of incubation at 35±2° C. in ambient air. The overall procedure was performed as per Clinical and Laboratory Standards Institute (CLSI) recommendations (Clinical and Laboratory Standards Institute (CLSI), performance Standards for Antimicrobial Susceptibility Testing, 20th Informational Supplement, M 100-S20, Volume 30, No. 1, 2010).

Setting [4] is: Table 4, 2 hours, initial count 7.43 log CFU/ml.
The mark [5] stands for this setting: Table 4, 4 hours, initial count 7.43 log CFU/ml.
Where [6] appears, read: Table 4, 8 hours, initial count 7.43 log CFU/ml.
Where [7] appears, read: Table 5, 2 hours, initial count log 7.43 CFU/ml.
Where [8] appears, read: Table 5, 4 hours, initial count log 7.43 CFU/ml.
The mark [9] stands for this setting: Table 5, 8 hours, initial count log 7.43 CFU/ml.
[10] abbreviates: Table 2, 2 hours, initial count 6.65 log CFU/ml.
Setting [11] is: Table 2, 6 hours, initial count 6.65 log CFU/ml.
Setting [12] is: Table 2, 8 hours, initial count 6.65 log CFU/ml.
The mark [13] stands for this setting: Table 6, 2 hours, initial count 7.27 log CFU/ml.
Setting [14] is: Table 6, 4 hours, initial count 7.27 log CFU/ml.
Setting [15] is: Table 6, 8 hours, initial count 7.27 log CFU/ml.
Setting [16] is: Table 7, 2 hours, initial count 7.27 log CFU/ml.
Where [17] appears, read: Table 7, 4 hours, initial count 7.27 log CFU/ml.
[18] abbreviates: Table 7, 8 hours, initial count 7.27 log CFU/ml.
Where [19] appears, read: Table 3, 2 hours, initial count 7.04 log CFU/ml.
[20] abbreviates: Table 3, 6 hours, initial count 7.04 log CFU/ml.
[21] abbreviates: Table 3, 8 hours, initial count 7.04 log CFU/ml.

Like-named read-outs stand apart in the source and are kept apart here.

Consider `C=CC1=C(C(=O)O)N2C(=O)[C@@H](NC(=O)/C(=N\OCC(=O)O)c3csc(N)n3)[C@H]2SC1` [Cefixime (2 mcg/ml), cefixime], for which the Bacterial count in assay [1] (setting [4]) was 8.11 Log CFU/ml; in assay [1] (setting [5]) it was 8.30 Log CFU/ml; in assay [1] (setting [6]), 9 Log CFU/ml; in assay [2] (setting [7]), 8.16 Log CFU/ml; in assay [2] (setting [8]) it was 8.47 Log CFU/ml; in assay [2] (setting [9]) it was 8.84 Log CFU/ml.
The term MIC denotes the least concentration at which growth counts as inhibited. For the molecule `CC1(C)S[C@@H]2[C@H](/N=C/N3CCCCCC3)C(=O)N2[C@H]1C(=O)O` [Mecillinam, mecillinam], the Bacterial count in assay [1] (setting [10]) stood at 7.47 Log CFU/ml; in assay [1] (setting [11]), 8.23 Log CFU/ml; in assay [1] (setting [12]) it was 9.1 Log CFU/ml; in assay [1] (setting [4]), 7.95 Log CFU/ml; in assay [1] (setting [5]), 8.33 Log CFU/ml; in assay [1] (setting [6]), 8.90 Log CFU/ml. The Bacterial count in assay [1] (setting [13]) was determined as 8.23 Log CFU/ml; in assay [1] (setting [14]), 8.74 Log CFU/ml; in assay [1] (setting [15]), 9.47 Log CFU/ml; in assay [1] (setting [16]), 8.23 Log CFU/ml; in assay [1] (setting [17]), 8.74 Log CFU/ml; in assay [1] (setting [18]), 9.47 Log CFU/ml. Further, the Bacterial count in assay [2] (setting [19]) was 7.74 Log CFU/ml; in assay [2] (setting [20]), 8.69 Log CFU/ml; in assay [2] (setting [21]) it was 8.89 Log CFU/ml; in assay [2] (setting [7]) it was 8.39 Log CFU/ml; in assay [2] (setting [8]), 8.60 Log CFU/ml; in assay [2] (setting [9]) it was 8.90 Log CFU/ml. In assay [1] (Table 2), the “antibacterial activity (growth in presence of drug alone)” value (from here on “antibacterial activity”) was “no antibacterial activity”. Also, the MIC in assay [3] (ATCC700603, agent used alone, read-out: MIC value when used alone) is more than 64 µg/mL.
`CC1(C)S[C@@H]2[C@H](NC(=O)[C@H](N)c3ccc(O)cc3)C(=O)N2[C@H]1C(=O)O` [Amoxicillin, amoxicillin]: the Bacterial count in assay [1] (setting [10]) was determined as 7.84 Log CFU/ml; in assay [1] (setting [11]), 8.5 Log CFU/ml; in assay [1] (setting [12]), 9 Log CFU/ml; in assay [2] (setting [19]), 7.8 Log CFU/ml; in assay [2] (setting [20]) it was 8.8 Log CFU/ml; in assay [2] (setting [21]), 9 Log CFU/ml. Besides, the “antibacterial activity” value in assay [1] (Table 2) was “no antibacterial activity”. Further, in assay [3] (ATCC700603, amoxicillin alone or with fixed concentration of partner(s) named in the label, read-out: MIC of Amoxicillin), the MIC is more than 64 µg/mL.
As to `O=C(O)[C@H]1/C(=C/CO)O[C@@H]2CC(=O)N21` [Clavulanic acid, clavulanic acid], the Bacterial count in assay [1] (setting [10]) is 8.1 Log CFU/ml; in assay [1] (setting [11]) it was 8.8 Log CFU/ml; in assay [1] (setting [12]), 9 Log CFU/ml; in assay [1] (setting [4]), 8.4 Log CFU/ml; in assay [1] (setting [5]), 8.65 Log CFU/ml; in assay [1] (setting [6]), 8.9 Log CFU/ml. In addition, the Bacterial count in assay [1] (setting [13]) is 8.47 Log CFU/ml; in assay [1] (setting [14]), 9.09 Log CFU/ml; in assay [1] (setting [15]) it was 9.09 Log CFU/ml; in assay [1] (setting [16]) it was 8.47 Log CFU/ml; in assay [1] (setting [17]), 9.09 Log CFU/ml; in assay [1] (setting [18]), 9.09 Log CFU/ml. Moreover, the Bacterial count in assay [2] (setting [19]) stood at 8.1 Log CFU/ml; in assay [2] (setting [20]) it was 8.7 Log CFU/ml; in assay [2] (setting [21]), 9 Log CFU/ml; in assay [2] (setting [7]), 8.1 Log CFU/ml; in assay [2] (setting [8]), 8.56 Log CFU/ml; in assay [2] (setting [9]), 8.85 Log CFU/ml. In addition, the “antibacterial activity” value in assay [1] (Table 2) is “no antibacterial activity”. In addition, in assay [3] (ATCC700603, read-out: MIC value when used alone), the MIC is more than 64 µg/mL.
For the molecule `COCC1=C(C(=O)O)N2C(=O)[C@@H](NC(=O)/C(=N\OC)c3csc(N)n3)[C@H]2SC1` [Cefpodoxime (2 mcg/ml), cefpodoxime], the Bacterial count in assay [1] (setting [13]) amounted to 8.54 Log CFU/ml; in assay [1] (setting [14]) it was 9 Log CFU/ml; in assay [1] (setting [15]), 9 Log CFU/ml.
As for `C[C@@H](O)[C@H]1C(=O)N2C(C(=O)O)=C(SCCN=CN)C[C@H]12` [Imipenem, imipenem], the Bacterial count in assay [1] (setting [10]) came out at 5.32 Log CFU/ml; in assay [1] (setting [11]) it was 2.6 Log CFU/ml; in assay [1] (setting [12]), 2.0 Log CFU/ml; in assay [1] (setting [4]), 4.87 Log CFU/ml; in assay [1] (setting [5]) it was 3.39 Log CFU/ml; in assay [1] (setting [6]), 2.84 Log CFU/ml. Besides, the Bacterial count in assay [1] (setting [13]) stood at 5.32 Log CFU/ml; in assay [1] (setting [14]), 3.84 Log CFU/ml; in assay [1] (setting [15]), 2.32 Log CFU/ml; in assay [1] (setting [16]) it was 5.32 Log CFU/ml; in assay [1] (setting [17]), 3.84 Log CFU/ml; in assay [1] (setting [18]) it was 2.32 Log CFU/ml. For the same molecule, the Bacterial count in assay [2] (setting [19]) was 5.4 Log CFU/ml; in assay [2] (setting [20]), 3.9 Log CFU/ml; in assay [2] (setting [21]) it was 3.8 Log CFU/ml; in assay [2] (setting [7]) it was 6.37 Log CFU/ml; in assay [2] (setting [8]), 5.69 Log CFU/ml; in assay [2] (setting [9]), 6.60 Log CFU/ml.
Turning to `CO/N=C(\C(=O)N[C@@H]1C(=O)N2C(C(=O)O)=C(COC(N)=O)CS[C@H]12)c1ccco1` [Cefuroxime (2 mcg/ml), cefuroxime], the Bacterial count in assay [1] (setting [16]) worked out at 8.77 Log CFU/ml; in assay [1] (setting [17]), 8.90 Log CFU/ml; in assay [1] (setting [18]), 9 Log CFU/ml.
